Assay results taken from patent US7160888B2, “[1,8]naphthyridin-2-ones and related compounds for the treatment of schizophrenia” (Warner Lambert Company LLC, priority 2003, dated 2007).

target: D2 receptor (Homo sapiens, UniProt P14416); test: [3H]Thymidine uptake assay for D2 intrinsic activity; assay type: cell-based; conditions: Table 1; test compound 1 μM; 1 μM Quinpirole = 100% intrinsic activity
Sequence (P14416 whole entry): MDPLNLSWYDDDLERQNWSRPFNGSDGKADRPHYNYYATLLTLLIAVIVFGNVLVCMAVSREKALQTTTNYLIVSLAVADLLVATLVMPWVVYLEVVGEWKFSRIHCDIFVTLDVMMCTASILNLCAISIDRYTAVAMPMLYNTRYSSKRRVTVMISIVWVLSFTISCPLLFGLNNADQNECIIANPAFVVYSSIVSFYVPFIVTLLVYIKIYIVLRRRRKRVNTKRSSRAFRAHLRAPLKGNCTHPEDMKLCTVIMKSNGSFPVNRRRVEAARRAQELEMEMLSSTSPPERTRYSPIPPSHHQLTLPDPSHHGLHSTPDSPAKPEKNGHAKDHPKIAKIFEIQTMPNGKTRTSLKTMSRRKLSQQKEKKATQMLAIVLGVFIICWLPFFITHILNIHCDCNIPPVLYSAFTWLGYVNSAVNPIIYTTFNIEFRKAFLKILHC

Row | Structure (SMILES) | Emax at 1 µM [%]
1 | Cc1c(Cl)cccc1N1CCN(CCCCOc2ccc3c(n2)NC(=O)CC3(C)C)CC1 [Example D21, 7-{4-[4-(3-Chloro-2-methyl-phenyl)-piperazin-1-yl]-butoxy}-4,4-dimethyl-3,4-dihydro-1H-[1,8]naphthyridin-2-one] | 24
2 | CC1(C)CC(=O)Nc2nc(OCCCCN3CCN(c4cccc(C5CC5)n4)CC3)ccc21 [Example D22, 7-{4-[4-(6-Cyclopropyl-pyridin-2-yl)-piperazin-1-yl]-butoxy}-4,4-dimethyl-3,4-dihydro-1H-[1,8]naphthyridin-2-one] | 42
3 | CCc1ccccc1N1CCN(CCCCOc2ccc3c(n2)NC(=O)CC3(C)C)CC1 [Example D23, 7-{4-[4-(2-Ethyl-phenyl)-piperazin-1-yl]-butoxy}-4,4-dimethyl-3,4-dihydro-1H-[1,8]naphthyridin-2-one] | 33
4 | CC(C)COc1ccccc1N1CCN(CCCCOc2ccc3c(n2)NC(=O)CC3(C)C)CC1 [Example D24, 7-{4-[4-(2-Isobutoxy-phenyl)-piperazin-1-yl]-butoxy}-4,4-dimethyl-3,4-dihydro-1H-[1,8]naphthyridin-2-one] | 32
5 | CC(C)Oc1ccccc1N1CCN(CCCCOc2ccc3c(n2)NC(=O)CC3(C)C)CC1 [Example D25, 7-{4-[4-(2-Isopropoxy-phenyl)-piperazin-1-yl]-butoxy}-4,4-dimethyl-3,4-dihydro-1H-[1,8]naphthyridin-2-one] | 31
6 | O=C1CCc2cc(F)c(OCCCCN3CCN(c4cccc(Cl)c4Cl)CC3)nc2N1 [Example E3, 7-{4-[4-(2,3-Dichloro-phenyl)-piperazin-1-yl]-butoxy}-6-fluoro-3,4-dihydro-1H-[1,8]naphthyridin-2-one] | 31
7 | O=C1CCc2cc(F)c(OCCCCN3CCN(c4cccc5ccccc45)CC3)nc2N1 [Example E4, 6-Fluoro-7-[4-(4-naphthalen-1-yl-piperazin-1-yl)-butoxy]-3,4-dihydro-1H-[1,8]naphthyridin-2-one] | 38
8 | O=C1CCc2cc(F)c(OCCCCN3CCN(c4cccc5c4CCC5)CC3)nc2N1 [Example E5, 6-Fluoro-7-[4-(4-indan-4-yl-piperazin-1-yl)-butoxy]-3,4-dihydro-1H-[1,8]naphthyridin-2-one] | 21
9 | O=C1CCc2cc(Cl)c(OCCCCN3CCN(c4cccc5ccccc45)CC3)nc2N1 [Example E6, 6-Chloro-7-[4-(4-naphthalen-1-yl-piperazin-1-yl)-butoxy]-3,4-dihydro-1H-[1,8]naphthyridin-2-one] | 32
10 | O=C1CCc2cc(Br)c(OCCCCN3CCN(c4cccc(Cl)c4Cl)CC3)nc2N1 [Example E7, 6-Bromo-7-{4-[4-(2,3-dichloro-phenyl)-piperazin-1-yl]-butoxy}-3,4-dihydro-1H-[1,8]naphthyridin-2-one] | 19
11 | O=C1CCc2cc(Br)c(OCCCCN3CCN(c4cccc5ccccc45)CC3)nc2N1 [Example E8, 6-Bromo-7-[4-(4-naphthalen-1-yl-piperazin-1-yl)-butoxy]-3,4-dihydro-1H-[1,8]naphthyridin-2-one] | 26
12 | Cc1cc(OCCCCN2CCN(c3cccc(Cl)c3Cl)CC2)nc2c1CCC(=O)N2 [Example E9, 7-{4-[4-(2,3-Dichloro-phenyl)-piperazin-1-yl]-butoxy}-5-methyl-3,4-dihydro-1H-[1,8]naphthyridin-2-one] | 34
13 | Cc1cc(OCCCCN2CCN(c3cccc4ccccc34)CC2)nc2c1CCC(=O)N2 [Example E10, 5-Methyl-7-[4-(4-naphthalen-1-yl-piperazin-1-yl)-butoxy]-3,4-dihydro-1H-[1,8]naphthyridin-2-one] | 31
14 | Cc1cc(OCCCCN2CCN(c3cccc4c3CCCC4)CC2)nc2c1CCC(=O)N2 [Example E11, 5-Methyl-7-{4-[4-(5,6,7,8-tetrahydro-naphthalen-1-yl)-piperazin-1-yl]-butoxy}-3,4-dihydro-1H-[1,8]naphthyridin-2-one] | 19
15 | Cc1cc(OCCCCN2CCN(c3cccc4c3CCC4)CC2)nc2c1CCC(=O)N2 [Example E12, 7-[4-(4-Indan-4-yl-piperazin-1-yl)-butoxy]-5-methyl-3,4-dihydro-1H-[1,8]naphthyridin-2-one] | 39
16 | O=C1CCc2c(C(F)(F)F)cc(OCCCCN3CCN(c4cccc5c4CCC5)CC3)nc2N1 [Example E13, 7-[4-(4-Indan-4-yl-piperazin-1-yl)-butoxy]-5-trifluoromethyl-3,4-dihydro-1H-[1,8]naphthyridin-2-one] | 11
17 | O=C1CCc2c(C(F)(F)F)cc(OCCCCN3CCN(c4cccc5ccccc45)CC3)nc2N1 [Example E14, 7-[4-(4-Naphthalen-1-yl-piperazin-1-yl)-butoxy]-5-trifluoromethyl-3,4-dihydro-1H-[1,8]naphthyridin-2-one] | 36
18 | O=C1CCc2c(C(F)(F)F)cc(OCCCCN3CCN(c4cccc5c4CCCC5)CC3)nc2N1 [Example E15, 7-{4-[4-(5,6,7,8-Tetrahydro-naphthalen-1-yl)-piperazin-1-yl]-butoxy}-5-trifluoromethyl-3,4-dihydro-1H-[1,8]naphthyridin-2-one] | 20
19 | O=C1NCc2ccc(OCCCCN3CCN(c4cccc5c4CCC5)CC3)nc2N1 [Example F3, 7-[4-(4-Indan-4-yl-piperazin-1-yl)-butoxy]-3,4-dihydro-1H-pyrido[2,3-d]pyrimidin-2-one] | 15
20 | O=C1NCc2ccc(OCCCCN3CCN(c4cccc5c4CCCC5)CC3)nc2N1 [Example F4, 7-{4-[4-(5,6,7,8-Tetrahydro-naphthalen-1-yl)-piperazin-1-yl]-butoxy}-3,4-dihydro-1H-pyrido[2,3-d]pyrimidin-2-one] | 23
21 | O=C1NCc2ccc(OCCCCN3CCN(c4cccc5ccc(F)cc45)CC3)nc2N1 [Example F5, 7-{4-[4-(7-Fluoro-naphthalen-1-yl)-piperazin-1-yl]-butoxy}-3,4-dihydro-1H-pyrido[2,3-d]pyrimidin-2-one] | 32
22 | N#Cc1ccc2cccc(N3CCN(CCCCOc4ccc5c(n4)NC(=O)NC5)CC3)c2c1 [Example F6, 8-{4-[4-(2-Oxo-1,2,3,4-tetrahydro-pyrido[2,3-d]pyrimidin-7-yloxy)-butyl]-piperazin-1-yl}-naphthalene-2-carbonitrile] | 37
23 | CN1Cc2ccc(OCCCCN3CCN(c4cccc(Cl)c4Cl)CC3)nc2NC1=O [Example F7, 7-{4-[4-(2,3-Dichloro-phenyl)-piperazin-1-yl]-butoxy}-3-methyl-3,4-dihydro-1H-pyrido[2,3-d]pyrimidin-2-one] | 11
24 | CN1Cc2ccc(OCCCCN3CCN(c4cccc5ccccc45)CC3)nc2NC1=O [Example F8, 3-Methyl-7-[4-(4-naphthalen-1-yl-piperazin-1-yl)-butoxy]-3,4-dihydro-1H-pyrido[2,3-d]pyrimidin-2-one] | 15
25 | CC1(C)OC(=O)Nc2nc(CCCCCN3CCN(c4cccc(Cl)c4Cl)CC3)ccc21 [Example F9, 7-{5-[4-(2,3-Dichloro-phenyl)-piperazin-1-yl]-pentyl}-4,4-dimethyl-1,4-dihydro-pyrido[2,3-d][1,3]oxazin-2-one] | 11
26 | O=C1COc2ccc(CCCCCN3CCN(c4cccc(Cl)c4Cl)CC3)nc2N1 [Example G1, 6-{5-[4-(2,3-Dichloro-phenyl)-piperazin-1-yl]-pentyl}-4H-pyrido[3,2-b][1,4]oxazin-3-one] | 27
27 | O=C1COc2ccc(CCCCCN3CCN(c4cccc5c4CCCC5)CC3)nc2N1 [Example G2, 6-{5-[4-(5,6,7,8-Tetrahydro-naphthalen-1-yl)-piperazin-1-yl]-pentyl}-4H-pyrido[3,2-b][1,4]oxazin-3-one] | 6
28 | O=C1COc2ccc(OCCCCN3CCN(c4cccc(Cl)c4Cl)CC3)nc2N1 [Example G3, 6-{4-[4-(2,3-Dichloro-phenyl)-piperazin-1-yl]-butoxy}-4H-pyrido[3,2-b][1,4]oxazin-3-one] | 25

same assay, conditions: Table 2; test compound 1 μM; 1 μM Quinpirole = 100% intrinsic activity

Row | Structure (SMILES) | Emax at 1 µM [%]
29 | O=c1ncc2ccc(OCCCCN3CCN(c4cccc5c4OCCC5)CC3)nc2[nH]1 [Example E1′, 7-[4-(4-Chroman-8-yl-piperazin-1-yl)-butoxy]-1H-pyrido[2,3-d]pyrimidin-2-one] | 12
30 | O=C1NCc2ccc(OCCCCN3CCN(c4cccc5c4OCCC5)CC3)nc2N1 [Example E2′, 7-[4-(4-Chroman-8-yl-piperazin-1-yl)-butoxy]-3,4-dihydro-1H-pyrido[2,3-d]pyrimidin-2-one] | 9
31 | O=C1NCc2ccc(OCCCCN3CCN(c4cccc5c4OCC5)CC3)nc2N1 [Example E3′, 7-{4-[4-(2,3-Dihydro-benzofuran-7-yl)-piperazin-1-yl]-butoxy}-3,4-dihydro-1H-pyrido[2,3-d]pyrimidin-2-one] | 8
32 | O=C1NCc2ccc(OCCCCN3CCN(c4cccc5c4OCCCO5)CC3)nc2N1 [Example E4′, 7-{4-[4-(3,4-Dihydro-2H-benzo[b][1,4]dioxepin-6-yl)-piperazin-1-yl]-butoxy}-3,4-dihydro-1H-pyrido[2,3-d]pyrimidin-2-one] | 26
33 | O=c1ccc2cnc(OCCCCN3CCN(c4cccc5c4OCCO5)CC3)nc2[nH]1 [Example G1′, 2-{4-[4-(2,3-Dihydro-benzo[1,4]dioxin-5-yl)-piperazin-1-yl]-butoxy}-8H-pyrido[2,3-d]pyrimidin-7-one] | 20
34 | O=c1ccc2cnc(OCCCCN3CCN(c4cccc5c4OCCC5)CC3)nc2[nH]1 [Example G2′, 2-[4-(4-Chroman-8-yl-piperazin-1-yl)-butoxy]-8H-pyrido[2,3-d]pyrimidin-7-one] | 21
35 | O=c1ccc2cnc(OCCCCN3CCN(c4cccc5cccnc45)CC3)nc2[nH]1 [Example G3′, 2-[4-(4-Quinolin-8-yl-piperazin-1-yl)-butoxy]-8H-pyrido[2,3-d]pyrimidin-7-one] | 28
36 | O=c1ccc2cnc(OCCCCN3CCN(c4cccc5c4OCC5)CC3)nc2[nH]1 [Example G4′, 2-{4-[4-(2,3-Dihydro-benzofuran-7-yl)-piperazin-1-yl]-butoxy}-8H-pyrido[2,3-d]pyrimidin-7-one] | 13
